The source of these data is paper PMC12454603 (Archives of Toxicology, 2025).

SMILES strings stand for the structures. Values joined by “and” are separate entries in the source; they are usually repeats but may differ in a detail not shown here. Equal entries are not always repeated. “Also recorded” adds a separate entry of the source. Where two headings read alike, the source gives them in different places.

The test system of series [1] is ES-D3 cells (differentiation into contracting cardiomyocytes). The experiment in a line: ES-D3 cell differentiation assay of the mouse embryonic stem cell test (mEST). It is filed as cell-based. As to conditions: for IC50: Mus musculus, Cardiomyocyte, 240 h, read-out: IC50 for inhibition of differentiation of ES-D3 cells into beating cardiomyocytes; for Outcome in the differentiation assay of the mEST: parent PAH tested without bioactivation. As for the experimental part: The developmental toxicity of the test compounds was assessed by the inhibitory effect on the differentiation of cells of the ES-D3 cell line into contracting cardiomyocytes. The assay was performed essentially as previously described (Kamelia et al. [2020]). The cells were cultured on the lid of a 96-well plate in 45 hanging drops (volume 20 µL/drop) at a concentration of 37,500 cells/ml. The 96 wells were filled with 250 µL PBS to maintain the humidity. Sterile Eppendorf lids were placed at the corners of the 96-well plate to prevent the hanging drops from contacting the 96-well plate. The plates were sealed with micropore tape and incubated at 37 °C with 5% CO2 in a humidified atmosphere for 72 h. After 72 h, 5 ml exposure medium was prepared for each concentration of each test compound with 0.25% DMSO in a 60 × 15 mm petri dish. The formed embryonic bodies (EBs) in the hanging drops on the lid of the 96-well plate were washed off with exposure medium and collected in the petri dish. The Petri dish was subsequently incubated at 37 °C with 5% CO2 in a humidified atmosphere for 48 h. After 48 h, the EBs were transferred to a 24-well plate filled with 1 ml exposure medium per well. Each well contained 1 EB. The 24-well plates were incubated at 37 °C with 5% CO2 in a humidified atmosphere for 120 h. The number of EBs with contracting cardiomyocytes and the undifferentiated EBs were counted under a microscope. In the solvent (DMSO) control, the presence of more than 21 EBs with contracting cardiomyocytes out of 24 EBs indicates a valid assay. In each experiment, 0.5 µM (0.065 µg/ml) 5-FU was used as a positive control. The result of the differentiation assay is expressed as the fraction of differentiated EBs of the total number of EBs.
(§1) The concentration–response data for the test compounds in the mEST were presented in three curves including curves for 1-day cytotoxicity, 5-day cytotoxicity, and 10-day differentiation assays. The obtained curves were fitted using the inhibition equation log (inhibitor) vs response (three parameters) option using GraphPad Prism software 5.0 (California, USA).

The subject of series [2] is ES-D3 cells. The experiment in a line: ES-D3 cell cytotoxicity (WST-1 viability) assay of the mEST. It is filed as cell-based, mouse. How it is done: The viability of the ES-D3 cells following 1-day and 5-day exposure to the test compounds was measured with the WST-1 assay. To this end, 100 µL cell suspension was seeded in the inner 60 wells of 96-well plates at a concentration of 2 × 10^5 cells/ml for 1-day exposure and 10^4 cells/ml for 5-day exposure and incubated at 37 °C with 5% CO2 for 24 h. After 24 h, 100 µL exposure medium with 0.25% DMSO and the required concentration of the test compounds, solvent control, and positive control were added to the cells in triplicate. The plates were incubated at 37 °C with 5% CO2 for 1 day or 5 days until measurement. After the exposure period, 20 µL of the cell proliferation reagent WST-1 were added to each well that contained cells and the cells were incubated for 3 h at 37 °C with 5% CO2. The absorbance of each plate was measured at 440 nm and 620 nm with a SpectraMax iD3 (San Jose, USA).
as §1

The nature of series [3]: In vivo kinetic study, intravenous 50 mg/kg bw, blood concentrations. Conditions: rat, 50 mg/kg bw parent PAH. As for the experimental part:
Six male Sprague–Dawley rats at the age of 8–9 weeks weighing 286-305g/rat were obtained from Charles River Inc (Beijing, China). The rats were maintained in plastic cages in two groups of three in a temperature-controlled (ranging from 20 °C to 25 °C) and humidity-controlled (ranging from 40–70%) environment on a 12-h light–dark cycle. The animal bedding was corncob and used after autoclaving. The bedding and the cages were changed twice a week. The number of animals was restricted to 3 per dose group and control blood samples were collected before dosing. Feeding and living conditions followed the Chinese Laboratory Animal-Requirement of environment and housing facilities (GB14925-2010). The present rat study was approved by Institutional Animal Care and Use Committee (IACUC-BF202305006).
All animals were fasted 8 h before intravenous injection and resumed feed supply 4 h after dosing.
After administration, blood samples (0.1–0.2 ml blood volume) were taken from the medial canthus venous plexus of the animal and anticoagulated with sodium heparin. Prior to orbital venipuncture and blood collection, the animals were anesthetized by CO2 inhalation (70% CO2 + 30% O2). Blood was sampled at 1 min, 0.5, 1, 2, 4, 8, 12, 24, 32, 48, and 72 h post-dosing. After collection, blood samples were frozen and were stored at −20 °C until analysis. All animals were euthanized with 100% CO2 after the experiment.
Aliquots of 100 µL of blood samples were transferred into centrifuge tubes and 700 µL sodium acetate buffer (0.1M, pH 5.0) and 6 µL β-glucuronidase-arylsulfatase were added. The samples were incubated for 1 h at 37 °C and subsequently extracted twice with 800 µL ethyl acetate saturated with water. The samples were shaken for 30 min and centrifuged 5 min at 2000 g (4 °C). The upper organic phase was transferred to a centrifuge tube and evaporated under a gentle stream of nitrogen at 40 ℃ in a water bath. The residues were re-dissolved with 200 µL ascorbic acid:methanol (1:100). […]

Series [4] has as its system rats. The experiment in a line: PBK modeling-facilitated reverse dosimetry (QIVIVE) of mEST data to predict developmental toxicity. As to conditions: rat. As for the experimental part: The relationship between the in vivo 3-OH-8-MBaP concentration in maternal blood (C in vivo) and the in vitro 3-OH-8-MBaP concentration in the mEST (Cin vitro) was described by the following Eq. (2): 2 Cinvivo∗fub,invivo=Cinvitro∗fub,invitro
The fraction unbound in blood (fub, in vivo) of 3-OH-8-MBaP was calculated as 0.004 (Table 2) based on the methodology mentioned in Sect. “PBK model for 8-MBaP in rats”. The fraction unbound in the mEST (fub, in vitro) was assumed to be half of the fub, in vivo based on the ratio between the protein content in rat blood plasma (7.5%) and the mEST assay medium (15%). The unbound concentration in vitro (Cub, in vitro) inducing the developmental toxicity response in mEST was converted using Eq. (2) to an unbound concentration in blood (Cub,in vivo) that was further converted by the PBK model to a predicted oral dose.

Series [5] deals with rats. Set-up: method as in Wang et al. 2021. Conditions: rat, oral exposure, previously predicted dose–response curve; ref Wang et al. 2021; cited from earlier work.
Series [6] concerns rats. Set-up: method as in Archibong et al. 2002. As to conditions: rat; derived from reported in vivo dose–response data; ref Archibong et al. 2002; cited from earlier work.
On the set-up of series [7]: method as in Sun et al. 2002. As to conditions: 8-MBaP assumed to be the same as BaP; ref Sun et al. 2002; cited from earlier work.
Series [8] has as its system P450 enzymes in rat liver microsomes. In words: P450-mediated oxidative metabolism of 8-MBaP/BaP in rat liver microsomes. The format is in vitro ADME. How it is done:
3-OH-8-MBaP was subsequently modeled to be conjugated by glucuronidation and sulfation in the liver. The kinetic constants for these conjugation reactions were determined in incubation experiments described in Sect. […] The scaling factors from rat liver microsomes and rat liver S9 to the whole liver were 45 mg microsomal protein/g liver and 125 mg S9 protein/g liver, respectively (Houston and Galetin [2008]).
In general terms: Liver microsomes are a subcellular fraction often used to study metabolism.

Series [9] shares this test system. Also on record: method as in Wang et al. 2022. Conditions: cited from earlier work.
Where [10] appears, read: scaled to whole liver, liver weight 9.1 g.
Setting [11] is: scaled with 45 mg microsomal protein/g liver.

As to `Oc1ccc2ccc3c4ccccc4cc4ccc1c2c43` [3-OHBaP, 3-hydroxy-benzo[a]pyrene, reference compound], the concentration for half-maximal inhibition (IC50) (as a rule, the concentration that inhibits the measured activity by half) in [1] stood at 1510 nM. Also, in series [2] (1-day and 5-day cytotoxicity, ES-D3 cells), the “Cytotoxicity accompanying the inhibition of differentiation” value is listed as “non-cytotoxic concentrations”. Besides, the “Observed in vivo Cmax relative to the model prediction (lower)” value in series [3] was 2.6 fold.
For the molecule `c1ccc2c(c1)cc1ccc3cccc4ccc2c1c34` [BaP, benzo[a]pyrene], the “Outcome in the differentiation assay of the mEST” value in [1] was “inactive; also recorded: negative”. The “Predicted ED50 of BaP (present study) relative to previously predicted ED50 of BaP (lower)” value in series [4] (oral, versus Wang et al. 2021) is recorded as 0.9 fold. Moreover, the “Predicted ED50 of BaP (present study) relative to ED50 from the reported in vivo study (higher)” value in [4] (versus Archibong et al. 2002) is given as 1.3 fold. Besides, the “ED50 for developmental toxicity, model prediction” value in series [5] was 15.1 mg/kg bw. Besides, the “ED50 for developmental toxicity, in vivo toxicity study” value in series [6] is given as 10.8 mg/kg bw. In addition, in series [7], the “Permeability coefficient (Papp), apparent intestinal permeability in vivo” value is recorded as 0.02 dm/hr.
`Cc1ccc2c(c1)cc1ccc3cccc4ccc2c1c34` [8-MBaP, 8-methyl-benzo[a]pyrene]: the 50% inhibitory concentration (IC50) amounted to 830 nM in series [1] and 1740 nM in series [2] (Mus musculus, 120 h, 5-day exposure, WST-1, read-out: IC50 for reduction of cell viability on Day 5). Besides, in series [1], the “Outcome in the differentiation assay of the mEST” value is listed as “negative”. The figures for the “Scaled Vmax, 8-MBaP to 3-OH-8-MBaP” value in [8] (setting [10]) and in series [8] (setting [11]) were 2 µmol/h/liver and 0.19 µmol/h/g liver, respectively. Also, the “Scaled Vmax, 8-MBaP to other metabolites” value is reported as 11 µmol/h/liver in series [8] (setting [10]) and 1.18 µmol/h/g liver in series [8] (setting [11]). For the same molecule, the Km – broadly, the concentration of substrate that gives half-maximal velocity – in series [9] (read-out: Km, 8-MBaP to 3-OH-8-MBaP, ref Wang et al. 2022, listed as 8MBaP) is 12 µM; in [9] (read-out: Km, 8-MBaP to 3-OH-8-MBaP, ref Wang et al. 2022) it was 11.6 µM; in series [9] (read-out: Km, 8-MBaP to other metabolites, sum of other metabolites, ref Wang et al. 2022, listed as 8MBaP) it was 8 µM; in series [9] (read-out: Km, 8-MBaP to other metabolites, sum of other metabolites, ref Wang et al. 2022) it was 8.07 µM. Also, the “Vmax, 8-MBaP to 3-OH-8-MBaP” value in series [9] (ref Wang et al. 2022) is 0.07 nmol/min/mg microsomal protein and 0.07^a nmol/min/mg microsomal protein. For the same molecule, the “Vmax, 8-MBaP to other metabolites” value in [9] (sum of other metabolites, ref Wang et al. 2022) was 0.43 nmol/min/mg microsomal protein and 0.43^a nmol/min/mg microsomal protein.
